Results from patent publication US20240376097A1, “BCL-2 Inhibitor” (BeiGene Ltd., priority 2020, published 2024).
Where two headings read alike, the source gives them in different places.

What was measured:
[1] = test system: BCL-2 G101V knock-in cell line H96 (derive from RS4;11); assay: Bcl 2-G101V Knock-In RS4;11 Cell Proliferation Assay; format: cell-based; details: Homo sapiens, RS4;11 Bcl-2 G101V knock-in clone H96, 48 hrs, CellTiter-GLO, read-out: Cellular proliferation assay (IC50, nM) RS4
Outline: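 H96, a CRISPR-generated RS4;11 clone carrying BCL2-G101V knock-in (WES/RNA-seq validated), seeded 50,000 per well and exposed 48 h at 37 °C to 10-point dilutions topping at 1 or 10 μM. Viability by CellTiter-Glo luminescence; mean IC50.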

[2] = biological target: Recombinant human Bcl-2 protein (Homo sapiens (Human), UniProt P10415); assay: Bcl-2 TR-FRET Assay; format: binding
Outline: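 0.05 nM Bcl-2 pre-incubated 0.5 h at room temperature with 10-point compound dilutions (top final 1, 0.1, 0.02 or 0.01 uM) in 20 mM potassium phosphate pH 7.5, 50 mM NaCl, 1 mM EDTA, 0.05% Tween-20, 0.01% BSA; FITC-Bak peptide (0.5 nM) and anti-6His Tb cryptate added, 1 h. IC50 from four-parameter logistic fit.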

[3] = test system: RS4;11 (BCL-2 dependent acute lymphoblastic leukemia cell line); assay: RS4;11 Cell Proliferation Assay; format: cell-based; details: Homo sapiens, RS4-11, RS4;11 cells, read-out: Cellular proliferation assay (IC50, nM) RS4
Outline: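 RS4;11 cells, 50,000 per well in RPMI-1640 with 10% FBS, treated 48 h at 37 °C with a 10-point dilution series topping at 1 μM. Viability read by CellTiter-Glo ATP luminescence; mean IC50 reported.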

[4] = biological target: recombinant human Bcl-2-G101V protein (Homo sapiens (Human), UniProt P10415, G101V); assay: Bcl-2-G101V TR-FRET Assay; format: binding; details: Bcl-2 G101V mutant, TR-FRET; read-out: Biochemical assay (IC50, nM) Bcl-2 G101V
Outline: (§1)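 Percent inhibition of the Bcl-2-G101V–ligand interaction was computed from the 490 nm to 520 nm emission ratio after 337 nm excitation, over increasing compound concentrations; a four-parameter logistic fit gave IC50.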

[5] = test system: recombinant human Bcl-2-G101V protein; assay: Bcl-2-G101V TR-FRET Assay; format: binding; details: for Ratio of Bcl-2 G101V/WT: ratio of biochemical IC50 Bcl-2 G101V / Bcl-2 WT; for ratio of IC50 of Bcl-2 G101V/Bcl-2 wt, compared with Example F132b in WO2019210828 and ABT-199 (venetoclax): comparison in words
Outline: as §1

[6] = biological target: recombinant human Bcl-2 D103Y protein (Homo sapiens (Human), UniProt P10415, D103Y); assay: Bcl-2-D103Y Biochemical Assay (TR-FRET); format: binding; details: for IC50: TR-FRET, FITC labeled Bak peptide; for Ratio of Bcl-2 D103Y/Bcl-2 WT: ratio of IC50; for ratio of Bcl-2 D103Y/Bcl-2 wt, compared with F91b in WO2019210828: comparison in words
Outline: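 Recombinant human Bcl-2 D103Y binding to its ligand measured by TR-FRET (ex 337 nm, em 490/520 nm) with increasing compound concentrations. Percent inhibition from the 490/520 nm ratio; IC50 from four-parameter logistic fit.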

[7] = Bcl-2 wild type, TR-FRET, read-out: Biochemical assay (IC50, nM) Bcl-2 WT
[8] = wild type Bcl-2, unit inferred, read-out: Bcl-2 WT

Structure (SMILES)	IC50 [1]	IC50 [2, 7]	IC50 [2, 8]	IC50 [3]	IC50 [4]	Ratio of Bcl-2 G101V/WT [5]	IC50 [6]	Ratio of Bcl-2 D103Y/Bcl-2 WT [6]	ratio of IC50 of Bcl-2 G101V/Bcl-2 wt, compared with Example F132b in WO2019210828 and ABT-199 (venetoclax) [5]	ratio of Bcl-2 D103Y/Bcl-2 wt, compared with F91b in WO2019210828 [6]
CC(C)c1ccccc1[C@@H]1CN(Cc2ccc(Cl)cc2)CCN1C1CC2(CCN(c3ccc(C(=O)NS(=O)(=O)c4ccc(NC[C@H]5CC[C@](C)(O)CC5)c([N+](=O)[O-])c4)c(Oc4cnc5[nH]ccc5c4)c3)CC2)C1 (single isomer, unassigned) [Example 29a, 2-((1H-pyrrolo[2,3-b]pyridin-5-yl)oxy)-4-(2-((R or S)-4-(4-chlorobenzyl)-2-(2-isopropylphenyl)piperazin-1-yl)-7-azaspiro[3.5]nonan-7-yl)-N-((4-((((1r,4r)-4-hydroxy-4-methylcyclohexyl)methyl)amino)-3-nitrophenyl)sulfonyl)benzamide]	1.42 nM	0.2 nM	0.2 nM	0.22 nM	0.72 nM	3.5	0.38 nM	1.9		
COc1ccc(CN2CCN(C3CC4(CCN(c5ccc(C(=O)NS(=O)(=O)c6ccc(NC[C@H]7CC[C@](C)(O)CC7)c([N+](=O)[O-])c6)c(Oc6cnc7[nH]ccc7c6)c5)CC4)C3)[C@H](c3ccccc3C(C)C)C2)c(OC)c1 (single isomer, unassigned) [Example 48a, 2-((1H-pyrrolo[2,3-b]pyridin-5-yl)oxy)-4-(2-((R or S)-4-(2,4-dimethoxybenzyl)-2-(2-isopropylphenyl)piperazin-1-yl)-7-azaspiro[3.5]nonan-7-yl)-N-((4-((((1r,4r)-4-hydroxy-4-methylcyclohexyl)methyl)amino)-3-nitrophenyl)sulfonyl)benzamide]	0.81 nM	0.045 nM	0.045 nM	0.16 nM	0.21 nM	4.6	0.1 nM	2.3		
COc1ccc(CN2CCN(C3CC4(CCN(c5ccc(C(=O)NS(=O)(=O)c6ccc(NC[C@@H]7CN(C8COC8)CCO7)c([N+](=O)[O-])c6)c(Oc6cnc7[nH]ccc7c6)c5)CC4)C3)[C@@H](c3ccccc3C(C)C)C2)cc1 (single isomer, unassigned) [Example 84, 2-((1H-pyrrolo[2,3-b]pyridin-5-yl)oxy)-4-(2-((R or S)-2-(2-isopropylphenyl)-4-(4-methoxybenzyl)piperazin-1-yl)-7-azaspiro[3.5]nonan-7-yl)-N-((3-nitro-4-((((R)-4-(oxetan-3-yl)morpholin-2-yl)methyl)amino)phenyl)sulfonyl)benzamide]	0.6 nM	0.028 nM	0.028 nM	0.206 nM	0.15 nM	5.2	0.049 nM	1.8	much lower	significantly lower
CC(C)c1ccccc1C1CN(C2CCC2)CCN1C1CC2(CCN(c3ccc(C(=O)NS(=O)(=O)c4ccc(NC[C@H]5CC[C@](C)(O)CC5)c([N+](=O)[O-])c4)c(Oc4cnc5[nH]ccc5c4)c3)CC2)C1 (stereo partly shown) [Example 5, 2-((1H-pyrrolo[2,3-b]pyridin-5-yl)oxy)-4-(2-(4-cyclobutyl-2-(2-isopropylphenyl)piperazin-1-yl)-7-azaspiro[3.5]nonan-7-yl)-N-((4-((((1r,4r)-4-hydroxy-4-methylcyclohexyl)methyl)amino)-3-nitrophenyl)sulfonyl)benzamide]	5.33 nM	0.037 nM	0.037 nM	0.58 nM	0.45 nM	12.2	0.32 nM	12		
CC(C)c1ccccc1C1CN(C2COC2)CCN1C1CC2(CCN(c3ccc(C(=O)NS(=O)(=O)c4ccc(NC[C@H]5CC[C@](C)(O)CC5)c([N+](=O)[O-])c4)c(Oc4cnc5[nH]ccc5c4)c3)CC2)C1 (stereo partly shown) [Example 6, 2-((1H-pyrrolo[2,3-b]pyridin-5-yl)oxy)-N-((4-((((1r,4r)-4-hydroxy-4-methylcyclohexyl)methyl)amino)-3-nitrophenyl)sulfonyl)-4-(2-(2-(2-isopropylphenyl)-4-(oxetan-3-yl)piperazin-1-yl)-7-azaspiro[3.5]nonan-7-yl)benzamide]	4.83 nM	0.013 nM	0.013 nM	0.53 nM	0.32 nM	24.6	0.18 nM	24		
CC(C)c1ccccc1C1CN(C2CCOCC2)CCN1C1CC2(CCN(c3ccc(C(=O)NS(=O)(=O)c4ccc(NC[C@H]5CC[C@](C)(O)CC5)c([N+](=O)[O-])c4)c(Oc4cnc5[nH]ccc5c4)c3)CC2)C1 (stereo partly shown) [Example 10, 2-((1H-pyrrolo[2,3-b]pyridin-5-yl)oxy)-N-((4-((((1r,4r)-4-hydroxy-4-methylcyclohexyl)methyl)amino)-3-nitrophenyl)sulfonyl)-4-(2-(2-(2-isopropylphenyl)-4-(tetrahydro-2H-pyran-4-yl)piperazin-1-yl)-7-azaspiro[3.5]nonan-7-yl)benzamide]	3.16 nM	0.012 nM	0.012 nM	0.42 nM	0.21 nM	17.5	0.12 nM	10		
COCCN1CCN(C2CC3(CCN(c4ccc(C(=O)NS(=O)(=O)c5cc6c(c([N+](=O)[O-])c5)N[C@H](C[C@H]5CC[C@H](O)CC5)CO6)c(Oc5cnc6[nH]ccc6c5)c4)CC3)C2)C(c2ccccc2C(C)C)C1 (stereo partly drawn) [Example 14, 2-((1H-pyrrolo[2,3-b]pyridin-5-yl)oxy)-N-(((R)-3-(((1r, 4R)-4-hydroxycyclohexyl)methyl)-5-nitro-3,4-dihydro-2H-benzo[b][1,4]oxazin-7-yl)sulfonyl)-4-(2-(2-(2-isopropylphenyl)-4-(2-methoxyethyl)piperazin-1-yl)-7-azaspiro[3.5]nonan-7-yl)benzamide]	5.16 nM	0.0065 nM	0.0065 nM	0.45 nM	0.093 nM	14.3	0.084 nM	13		
CC(C)c1ccccc1C1CN(CC2CCCCC2)CCN1C1CC2(CCN(c3ccc(C(=O)NS(=O)(=O)c4ccc(NC[C@H]5CC[C@](C)(O)CC5)c([N+](=O)[O-])c4)c(Oc4cnc5[nH]ccc5c4)c3)CC2)C1 (stereo partly shown) [Example 16, 2-((1H-pyrrolo[2,3-b]pyridin-5-yl)oxy)-4-(2-(4-(cyclohexylmethyl)-2-(2-isopropylphenyl)piperazin-1-yl)-7-azaspiro[3.5]nonan-7-yl)-N-((4-((((1r,4r)-4-hydroxy-4-methylcyclohexyl)methyl)amino)-3-nitrophenyl)sulfonyl)benzamide]	8.6 nM	0.26 nM	0.26 nM	0.81 nM	1.7 nM	6.5	0.63 nM	2.5	much lower	significantly lower
CC(C)c1ccccc1C1CN(CC23CC(C2)C3)CCN1C1CC2(CCN(c3ccc(C(=O)NS(=O)(=O)c4ccc(NC[C@H]5CC[C@](C)(O)CC5)c([N+](=O)[O-])c4)c(Oc4cnc5[nH]ccc5c4)c3)CC2)C1 (stereo partly shown) [Example 18, 2-((1H-pyrrolo[2,3-b]pyridin-5-yl)oxy)-4-(2-(4-(bicyclo[1.1.1]pentan-1-ylmethyl)-2-(2-isopropylphenyl)piperazin-1-yl)-7-azaspiro[3.5]nonan-7-yl)-N-((4-((((1r,4r)-4-hydroxy-4-methylcyclohexyl)methyl)amino)-3-nitrophenyl)sulfonyl)benzamide]	4.9 nM	0.079 nM	0.079 nM	0.61 nM	0.71 nM	9.0	0.43 nM	5.4		
